Measured values: patent publication US20240218022A1, “ANTI-VISTA MACROCYCLIC PEPTIDES AND COMPOSITIONS” (BRISTOL-MYERS SQUIBB COMPANY, priority 2022, published 2024)
Positions of bridges follow the written chain, without caps; N, C: chain ends. Non-standard residues stand in square brackets, D forms with d. Residues, ends and D or L forms follow the SMILES beside them. Cit = NC(=O)NCCC[C@H](N)C(=O)O; Ahp(2) = CCCCC[C@H](N)C(=O)O; NHexGly = CCCCCCNCC(=O)O; Nle = CCCC[C@H](N)C(=O)O

Molecular target: T1, mouse VISTA (mVISTA) (Mus musculus, UniProt Q9D659)
T1 construct: expressed in transfected cells; host or cells: Human embryonic kidney 293T cells
T1 sequence (Q9D659 33-308): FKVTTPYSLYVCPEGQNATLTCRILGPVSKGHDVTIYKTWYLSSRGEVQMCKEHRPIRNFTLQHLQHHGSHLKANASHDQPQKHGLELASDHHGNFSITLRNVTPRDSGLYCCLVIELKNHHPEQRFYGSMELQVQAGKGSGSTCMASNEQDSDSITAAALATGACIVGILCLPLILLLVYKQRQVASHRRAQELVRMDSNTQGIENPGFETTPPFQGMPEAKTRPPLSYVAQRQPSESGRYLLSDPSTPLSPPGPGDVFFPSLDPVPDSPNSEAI
Experiment: Cell-Based Binding High-Content Assay For mVISTA (HC CBA mVISTA)
Details: 293T cells expressing mouse VISTA; competition with biotinylated peptide (2 nM); read-out: HC CBA mVISTA IC50
In short: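 Competition of compound with a biotinylated peptide (final 2 nM, 30 min at RT) for binding to mVISTA on 293T cells, run under no-wash or wash (1 h compound preincubation then removal) formats. Readout by Alexa 647–streptavidin imaging on a high-content platform; four-parameter logistic fit gave IC50.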

IC50 [µM]	SMILES
0.0171	CCCCCCN1CC(=O)N[C@@H](Cc2ccc(O)cc2)C(=O)N[C@@H](CCCCC)C(=O)N[C@@H](CC(=O)O)C(=O)N[C@@H](CCCNC(=N)N)C(=O)N[C@@H](CC(C)C)C(=O)N[C@@H](CCCCC)C(=O)N2CCC[C@H]2C(=O)N[C@@H](C(C)C)C(=O)N[C@@H](CC(=O)O)C(=O)N[C@H](C(=O)NCC(=O)O)CSCC(=O)N[C@@H](Cc2ccccc2)C(=O)N[C@@H](Cc2ccc(O)cc2)C(=O)N[C@@H](CC(=O)O)C1=O [Example 1013] ({CH2CO}-FYD[NHexGly]Y[Ahp(2)]DRL[Ahp(2)]PVDCG-OH; thioether N-14)
0.0184	CCCCCCN1CC(=O)N[C@@H](Cc2ccc(O)cc2)C(=O)N[C@@H](CC(C)C)C(=O)N[C@@H](CC(=O)O)C(=O)N[C@@H](CCCNC(=N)N)C(=O)N[C@@H](CC(C)C)C(=O)N[C@@H](CCCCC)C(=O)N2CCC[C@H]2C(=O)N[C@@H](C(C)C)C(=O)N[C@@H](CC(=O)O)C(=O)N[C@H](C(=O)NCC(N)=O)CSCC(=O)N[C@@H](Cc2ccccc2)C(=O)N[C@@H](Cc2ccc(O)cc2)C(=O)N[C@@H](CC(=O)O)C1=O [Example 1014] ({CH2CO}-FYD[NHexGly]YLDRL[Ahp(2)]PVDCG-NH2; thioether N-14)
0.0087	CCCCCCN1CC(=O)N[C@@H](Cc2ccc(O)cc2)C(=O)N[C@@H](CCCCC)C(=O)N[C@@H](CC(=O)O)C(=O)N[C@@H](CCCNC(=N)N)C(=O)N[C@@H](CC(C)C)C(=O)N[C@@H](CCCCC)C(=O)N2CCC[C@H]2C(=O)N[C@@H](C(C)C)C(=O)N[C@@H](CC(=O)O)C(=O)N[C@H](C(=O)NCC(N)=O)CSCC(=O)N[C@@H](Cc2ccccc2)C(=O)N[C@@H](Cc2ccc(O)cc2)C(=O)N[C@@H](CC(=O)O)C1=O [Example 1015] ({CH2CO}-FYD[NHexGly]Y[Ahp(2)]DRL[Ahp(2)]PVDCG-NH2; thioether N-14)
0.021	CCCCCCN1CC(=O)N[C@@H](Cc2ccc(O)cc2)C(=O)N[C@@H](CC(C)C)C(=O)NCC(=O)N[C@@H](CCCNC(=N)N)C(=O)N[C@@H](CC(C)C)C(=O)N[C@@H](CCCCC)C(=O)N2CCC[C@H]2C(=O)N[C@@H](C(C)C)C(=O)N[C@@H](CC(=O)O)C(=O)N[C@H](C(=O)NCC(=O)O)CSCC(=O)N[C@@H](Cc2ccccc2)C(=O)N[C@@H](Cc2ccc(O)cc2)C(=O)N[C@@H](CC(=O)O)C1=O [Example 1016] ({CH2CO}-FYD[NHexGly]YLGRL[Ahp(2)]PVDCG-OH; thioether N-14)
0.034	CCCCCCN1CC(=O)N[C@@H](Cc2ccc(O)cc2)C(=O)N[C@@H](CCCC)C(=O)NCC(=O)N[C@@H](CCCNC(=N)N)C(=O)N[C@@H](CC(C)C)C(=O)N[C@@H](CCCCC)C(=O)N2CCC[C@H]2C(=O)N[C@@H](C(C)C)C(=O)N[C@@H](CC(=O)O)C(=O)N[C@H](C(=O)NCC(N)=O)CSCC(=O)N[C@@H](Cc2ccccc2)C(=O)N[C@@H](Cc2ccc(O)cc2)C(=O)N[C@@H](CC(=O)O)C1=O [Example 1017] ({CH2CO}-FYD[NHexGly]Y[Nle]GRL[Ahp(2)]PVDCG-NH2; thioether N-14)
0.0339	CCCCCCN1CC(=O)N[C@@H](Cc2ccc(O)cc2)C(=O)N[C@@H](C(C)C)C(=O)NCC(=O)N[C@@H](CCCNC(=N)N)C(=O)N[C@@H](CC(C)C)C(=O)N[C@@H](CCCCC)C(=O)N2CCC[C@H]2C(=O)N[C@@H](C(C)C)C(=O)N[C@@H](CC(=O)O)C(=O)N[C@H](C(=O)NCC(=O)O)CSCC(=O)N[C@@H](Cc2ccccc2)C(=O)N[C@@H](Cc2ccc(O)cc2)C(=O)N[C@@H](CC(=O)O)C1=O [Example 1018] ({CH2CO}-FYD[NHexGly]YVGRL[Ahp(2)]PVDCG-OH; thioether N-14)
0.0079	CCCCCCN1CC(=O)N[C@@H](Cc2ccc(O)cc2)C(=O)N[C@@H](CCCC)C(=O)N[C@@H](CC(N)=O)C(=O)N[C@@H](CCCNC(N)=O)C(=O)N[C@@H](CC(C)C)C(=O)N[C@@H](CCCCC)C(=O)N2CCC[C@H]2C(=O)N[C@@H](C(C)C)C(=O)N[C@@H](CC(=O)O)C(=O)N[C@H](C(=O)NCC(=O)O)CSCC(=O)N[C@@H](Cc2ccccc2)C(=O)N[C@@H](Cc2ccc(O)cc2)C(=O)N[C@@H](CC(=O)O)C1=O [Example 1019] ({CH2CO}-FYD[NHexGly]Y[Nle]N[Cit]L[Ahp(2)]PVDCG-OH; thioether N-14)
0.0225	CCCCCCN1CC(=O)N[C@@H](Cc2ccc(O)cc2)C(=O)N[C@@H](CCCC)C(=O)N[C@@H](CC(N)=O)C(=O)N[C@@H](CCCNC(=N)N)C(=O)N[C@@H](CC(C)C)C(=O)N[C@@H](CCCCC)C(=O)N2CCC[C@H]2C(=O)N[C@@H](C(C)C)C(=O)N[C@@H](CC(=O)O)C(=O)N[C@H](C(=O)NCC(=O)O)CSCC(=O)N[C@@H](Cc2ccccc2)C(=O)N[C@@H](Cc2ccc(O)cc2)C(=O)N[C@@H](CC(=O)O)C1=O [Example 1020] ({CH2CO}-FYD[NHexGly]Y[Nle]NRL[Ahp(2)]PVDCG-OH; thioether N-14)
0.0322	CCCCCCN1CC(=O)N[C@@H](Cc2ccc(O)cc2)C(=O)N[C@@H](CCCC)C(=O)N[C@@H](CC(=O)O)C(=O)N[C@@H](CCCNC(=N)N)C(=O)N[C@@H](CC(C)C)C(=O)N[C@@H](CCCCC)C(=O)N2CCC[C@H]2C(=O)N[C@@H](C(C)C)C(=O)N[C@@H](CCCCC)C(=O)N[C@H](C(=O)NCC(=O)O)CSCC(=O)N[C@@H](Cc2ccccc2)C(=O)N[C@@H](Cc2ccc(O)cc2)C(=O)N[C@@H](CC(=O)O)C1=O [Example 1021] ({CH2CO}-FYD[NHexGly]Y[Nle]DRL[Ahp(2)]PV[Ahp(2)]CG-OH; thioether N-14)
0.0415	CCCCCCN1CC(=O)N[C@@H](Cc2ccc(O)cc2)C(=O)N[C@@H](CCCC)C(=O)NCC(=O)N[C@@H](CCCNC(=N)N)C(=O)N[C@@H](CC(C)C)C(=O)N[C@@H](CCCCC)C(=O)N2CCC[C@H]2C(=O)N[C@@H](C(C)C)C(=O)N[C@@H](CCC(=O)O)C(=O)N[C@H](C(=O)NCC(=O)O)CSCC(=O)N[C@@H](Cc2ccccc2)C(=O)N[C@@H](Cc2ccc(O)cc2)C(=O)N[C@@H](CC(=O)O)C1=O [Example 1022] ({CH2CO}-FYD[NHexGly]Y[Nle]GRL[Ahp(2)]PVECG-OH; thioether N-14)
0.031	CCCCCCN1CC(=O)N[C@@H](Cc2ccc(O)cc2)C(=O)N[C@@H](CCCC)C(=O)NCC(=O)N[C@@H](CCCNC(=N)N)C(=O)N[C@@H](CC(C)C)C(=O)N[C@@H](CCCCC)C(=O)N2CCC[C@H]2C(=O)N[C@@H](C(C)C)C(=O)NCC(=O)N[C@H](C(=O)NCC(=O)O)CSCC(=O)N[C@@H](Cc2ccccc2)C(=O)N[C@@H](Cc2ccc(O)cc2)C(=O)N[C@@H](CC(=O)O)C1=O [Example 1023] ({CH2CO}-FYD[NHexGly]Y[Nle]GRL[Ahp(2)]PVGCG-OH; thioether N-14)
0.0136	CCCCCCN1CC(=O)N[C@@H](Cc2ccc(O)cc2)C(=O)N[C@@H](CCCC)C(=O)N[C@@H](CC(=O)O)C(=O)N[C@@H](CCCNC(=N)N)C(=O)N[C@@H](CC(C)C)C(=O)N[C@@H](CCCCC)C(=O)N2CCC[C@H]2C(=O)N[C@@H](C(C)C)C(=O)NCC(=O)N[C@H](C(=O)NCC(=O)O)CSCC(=O)N[C@@H](Cc2ccccc2)C(=O)N[C@@H](Cc2ccc(O)cc2)C(=O)N[C@@H](CC(=O)O)C1=O [Example 1024] ({CH2CO}-FYD[NHexGly]Y[Nle]DRL[Ahp(2)]PVGCG-OH; thioether N-14)
0.0306	CCCCCCN1CC(=O)N[C@@H](Cc2ccc(O)cc2)C(=O)N[C@@H](CCCC)C(=O)N[C@@H](CC(=O)O)C(=O)N[C@@H](CCCNC(=N)N)C(=O)N[C@@H](CC(C)C)C(=O)N[C@@H](CCCCC)C(=O)N2CCC[C@H]2C(=O)N[C@@H](C(C)C)C(=O)N[C@@H](CC(C)C)C(=O)N[C@H](C(=O)NCC(=O)O)CSCC(=O)N[C@@H](Cc2ccccc2)C(=O)N[C@@H](Cc2ccc(O)cc2)C(=O)N[C@@H](CC(=O)O)C1=O [Example 1025] ({CH2CO}-FYD[NHexGly]Y[Nle]DRL[Ahp(2)]PVLCG-OH; thioether N-14)
0.0055	CCCCCCN1CC(=O)N[C@@H](Cc2ccc(O)cc2)C(=O)N[C@@H](CCCCC)C(=O)N[C@@H](CC(N)=O)C(=O)N[C@@H](CCCNC(=N)N)C(=O)N[C@@H](CC(C)C)C(=O)N[C@@H](CCCCC)C(=O)N2CCC[C@H]2C(=O)N[C@@H](C(C)C)C(=O)N[C@@H](CC(N)=O)C(=O)N[C@H](C(=O)NCC(=O)O)CSCC(=O)N[C@@H](Cc2ccccc2)C(=O)N[C@@H](Cc2ccc(O)cc2)C(=O)N[C@@H](CC(=O)O)C1=O [Example 1026] ({CH2CO}-FYD[NHexGly]Y[Ahp(2)]NRL[Ahp(2)]PVNCG-OH; thioether N-14)
0.0368	CCCCCCN1CC(=O)N[C@@H](Cc2ccc(O)cc2)C(=O)N[C@@H](CC(C)C)C(=O)N[C@@H](CC(N)=O)C(=O)N[C@@H](CCCNC(=N)N)C(=O)N[C@@H](CC(C)C)C(=O)N[C@@H](CCCCC)C(=O)N2CCC[C@H]2C(=O)N[C@@H](C(C)C)C(=O)N[C@@H](CC(N)=O)C(=O)N[C@H](C(=O)NCC(N)=O)CSCC(=O)N[C@@H](Cc2ccccc2)C(=O)N[C@@H](Cc2ccc(O)cc2)C(=O)N[C@@H](CC(=O)O)C1=O [Example 1027] ({CH2CO}-FYD[NHexGly]YLNRL[Ahp(2)]PVNCG-NH2; thioether N-14)
0.0052	CCCCCCN1CC(=O)N[C@@H](Cc2ccc(O)cc2)C(=O)N[C@@H](CCCC)C(=O)NCC(=O)N[C@@H](CCCNC(=N)N)C(=O)N[C@@H](CC(C)C)C(=O)N[C@@H](CCCCC)C(=O)N2CCC[C@H]2C(=O)N[C@@H](C(C)C)C(=O)N[C@@H](CC(N)=O)C(=O)N[C@H](C(=O)NCC(=O)O)CSCC(=O)N[C@@H](Cc2ccccc2)C(=O)N[C@@H](Cc2ccc(O)cc2)C(=O)N[C@@H](CC(=O)O)C1=O [Example 1028] ({CH2CO}-FYD[NHexGly]Y[Nle]GRL[Ahp(2)]PVNCG-OH; thioether N-14)
